Source: patent publication US20060148776A1, “Drug formulations having long and medium chain triglycerides” (Conforma Therapeutics Corporation, priority 2003, published 2006)

Key:
[1] = daily 1-hour infusion for 5 days every three weeks; cited from earlier work
[2] = Characterisation and storage stability of 17-AAG emulsion (droplet size, drug load, degradants); format: physicochemical
Procedure: EDTA (disodium, dihydrate, USP), sucrose, and water for injection (WFI) are weighed into a 5 L polypropylene beaker and stirred until the solids are dissolved. The aqueous phase is then added to the oil phase and thorough mixing effected using a high-speed emulsifier equipped with an emulsion head at 5000 RPM until the oil adhering to the surface is “stripped off.” Shearing rate is then increased to 10000 RPM for 2-5 minutes to obtain a uniform primary emulsion. Laser light scattering (LLS) may be used to measure the average droplet size, and the solution may further be checked, e.g., under an optical microscope to determine the relative presence or absence of crystals and solids.
The emulsion pH is adjusted to 6.0±0.2 with 0.2N NaOH. The primary emulsion is then passed through a Model 11OS microfluidizer (Microfluidics Inc., Newton, Mass., USA) operating at static pressure of about 110 psi (operating pressure of 60-95 psi) with a 75-micron emulsion interaction chamber (F20Y) for 6-8 passages until the average droplet size is ≦190 nm. LLS may be used following the individual passages to evaluate progress. The solution may further be checked for the presence of crystals using polarized light under an optical microscope.

C=CCNC1=C2CC(C)CC(OC)C(O)C(C)/C=C(\C)C(OC(N)=O)C(OC)/C=C\C=C(/C)C(=O)NC(=CC1=O)C2=O (stereo not shown) [Compound 17-AAG, 17-allylaminogeldanamycin]
maximum tolerated dose (MTD) [1]: 40 mg/m^2 | concentration achieved in the oil phase alone ([2]; oil phase alone): 20000 to 30000 µg/mL | time until degradants of 17-AAG are seen ([2]; stored at 40° C.): approximately 2 weeks | concentration achieved overall ([2]; whole emulsion): ≤ 3000 µg/mL
